Data: article PMC8110578, “Phenylethynylbenzyl-modified biguanides inhibit pancreatic cancer tumor growth” (Scientific Reports, 2021)
Like-named read-outs stand apart in the source and are kept apart here.

What was measured:
[1] = system: HPNE cells (normal immortalized pancreatic epithelial cells); assay: Growth assay (crystal violet), HPNE cells; type: cell-based, human; details: 3 days treatment, crystal violet retention assay
Description: . The IC50 of most of the synthetic biguanides in HPNE cells was higher than for cancer cells (Supplementary Table S12).
(§1) All chemicals were purchased from Aldrich Chemicals in their highest purity and used without further purification. Deuterated dimethylsulfoxide (DMSO-d^6) and deuterated chloroform (CDCl3) were purchased from CDN Isotopes. NMR spectra were recorded on Bruker advance 400 and 100 spectrometers. Coupling constants are given in hertz (Hz) and chemical shifts are given in parts per million (ppm, δ) measured relative to the residual solvent (the multiplicity of the signals are given as s: singlet, d: doublet, t: triplet, and m: multiplet). High-resolution mass spectra (HRMS) were recorded on a TSQ Quantum Ultra (Thermo Scientific) triple quadrupole with accurate mass option instrument (Université de Montréal Mass Spectrometry Facility). MS experiences were performed using an UltrafleXtreme MALDI TOF/TOF mass spectrometer equipped with a SmartBeam II Nd:Yag/355 nm laser operating at 1 kHz and providing a laser focus down to 20 μm in diameter (Bruker Daltonics, Billerica, MA). The data acquisition for MS was performed in positive ion mode using the linear geometry with flexControl 3.4 (Bruker Daltonics, Billerica, MA). Acceleration voltage was set to + 25 kV and all other instrumental parameters (delayed extraction parameters, source voltages, detector gain, laser energy, etc.) were optimized for maximum S/N for the drug compounds. L-α-Phosphatidylcholine was purchased from Avanti Polar Lipids. Transport and depolarization studies as well as absorbance measurements were performed on a Varian Cary Eclipse fluorescence spectrophotometer. The hemolysis assays were performed on a Fluostar Optima plate reader. Single crystals of C18H18F3N5O3S were obtained from chloroform. A suitable crystal was selected and analysed on a Bruker Venture Metaljet diffractometer. Crystal violet retention assay was used for cell growth assays and IC50 were determined using Prism (GraphPad). NAD/NADH quantitation colorimetric kit (#K337-100) from Biovision was used according to manufacturer’s instructions. ECAR (extracellular acidification rate) and OCR of KP4 cells (oxygen consumption rate) were measured on a Seahorse XF-24 (Agilent).
(§2) Experimental. KP4 (Riken RCB1005) and PSN1 (ATCC: CRM-CRL-3211), were cultured in Dulbecco's modified Eagle's medium (DMEM) (Wisent, St-Bruno, QC) supplemented with 10 % of fetal bovine serum (FBS) (Wisent). HPNE hTERT (ATCC: CRL1423) were cultured in a mix of 75% DMEM without glucose (Sigma Cat#. D-5030) with additional 2 mM L-glutamine and 1.5 g/L sodium bicarbonate, 25% Medium M3 Base (Incell Corp. Cat# M300F- 500), fetal bovine serum 5% (wisent 10 ng/ml human recombinant EGF (Sigma-Aldrich), 5.5 mM D-glucose (Sigma-Aldrich), 750 ng/ml puromycin (Sigma-Aldrich). For dose-response assays, cells were seeded in 96 well plates (company). After 24 h, treatments were applied and cells were grown for 3 more days. Crystal violet retention assay used for cell growth assays were described previously^2. The data is expressed as relative absorbance of crystal violet extracted from the cells and diluted in 10 % acetic acid. IC50 were determined using Prism (GraphPad). Tumor spheres were grew according to Ferbeyre et al^3.

KP4 cells = assay: Growth assay (crystal violet), KP4 cells; type: cell-based, human; details: KP4 cells, 3 days treatment, crystal violet retention assay, read-out: IC50 KP4
Description: as §1, §2

red blood cells [2] = assay: Hemolytic activity of PEB-biguanidium salts; type: cell-based; details: red blood cells 2% v/v in PBS, 1 h at 37 °C
Description: The toxicity of PEB-Biguanidiums salts was estimated through their hemolytic activity by incubating red blood cells (RBC) with the compounds for 1 h (See Supplementary Table S13 and Supplementary Fig. S29).
Experimental. Red blood cells in Alsever’s solution were centrifuged for 10 min at 300g, washed 3 times with PBS buffer, and resuspended in PBS at 2% v/v. To each well of a 96-well plate, 195 µL of red blood cell solution and 5 µL of biguanidium salt in DMSO were added, and the plate was incubated with light agitation for 1 h at 37 °C. The plate was then centrifuged for 10 min at 300g, and 50 µL of the supernatant solution of each well was transferred to another plate. Absorbance was measured at λ = 405 nm. Each measurement was performed in triplicate in three different experiments.

red blood cells [3] = system: red blood cells; parameters: method as in PMID 23143143, doi:10.1039/C3md00293d; details: cited from earlier work

| SMILES | IC50 [1] | IC50 (KP4 cells) | HC 10% (µM) (red blood cells [2]) | HC 10% (µg/ml) (red blood cells [2]) | IC50 ([1]; Homo sapiens, HPNE, 72 h) | IC50 (KP4 cells; Homo sapiens, KP-4, 72 h) | HC50 (concentration that kills 50% of red blood cells) (red blood cells [3]) |
| --- | --- | --- | --- | --- | --- | --- | --- |
| N=C(N)NC(=N)Nc1ccc(C#Cc2ccccc2)cc1 [3b, 4-(phenylethynylphenyl)biguanidium] | 60.4 µM | 58.3 µM | > 234 µM | > 100 µg/mL |  |  |  |
| N=C(N)NC(=N)Nc1ccc(CCc2ccccc2)cc1 [4c, 4-(phenylethylphenyl)biguanidium] |  | 16.9 µM | > 315 µM | > 100 µg/mL |  |  |  |
| N=C(N)NC(=N)NCc1ccc(CCc2ccccc2)cc1 [2b, 4-(phenylethyl)benzylbiguanide] | 31.3 µM | 17.4 µM | > 225 µM | > 100 µg/mL |  |  |  |
| N=C(N)NC(=N)Nc1ccc(CCc2ccccc2)cc1 [4a, 4-(phenylethylphenyl)biguanidium] |  |  | > 178 µM | > 100 µg/mL | 32.6 µM | 12.2 µM |  |
| N=C(N)NC(=N)NCc1ccc(CCc2ccccc2)cc1 [2c, 4-(phenylethyl)benzylbiguanide] |  |  | 151 µM | 50 µg/mL | 37.4 µM | 15.8 µM |  |
| N=C(N)NC(=N)NCc1ccc(C#Cc2ccccc2)cc1 [1c, 4-(phenylethynyl)benzylbiguanide] | 28.1 µM | 9.21 µM | > 305 µM | > 100 µg/mL |  |  |  |
| N=C(N)NC(=N)Nc1ccc(C#Cc2ccccc2)cc1 [3a, 4-(phenylethynylphenyl)biguanidium] | 20.2 µM | 17 µM | > 179 µM | > 100 µg/mL |  |  |  |
| N=C(N)NC(=N)Nc1ccc(C#Cc2ccccc2)cc1 [3c, 4-(phenylethynylphenyl)biguanidium] | 52.6 µM | 38.9 µM | > 319 µM | > 100 µg/mL |  |  |  |
| C(#Cc1ccc(Cn2c[n+](Cc3ccccc3)c3ccccc32)cc1)c1ccccc1 [A.2] |  |  |  |  |  |  | 1 mM |
| N=C(N)NC(=N)Nc1ccc(CCc2ccccc2)cc1 [4b, 4-(phenylethylphenyl)biguanidium] | 47.4 µM | 13.9 µM | > 232 µM | > 100 µg/mL |  |  |  |
| N=C(N)NC(=N)NCc1ccc(CCc2ccccc2)cc1 [2a, 4-(phenylethyl)benzylbiguanide] | 23.2 µM | 20.7 µM | > 173 µM | > 100 µg/mL |  |  |  |
| C[n+]1cn(Cc2ccc(C#Cc3ccccc3)cc2)c2ccccc21 [A.3] |  |  |  |  |  |  | 150 mM |
| C(#Cc1ccc(Cn2c[n+](Cc3ccc(C#Cc4ccccc4)cc3)c3ccccc32)cc1)c1ccccc1 [A.1] |  |  |  |  |  |  | 0.15 mM |
